Results on two molecules are retold here after patent publication US20100324060A1, “PHARMACEUTICAL COMPOSITIONS USEFUL FOR TREATING HCV” (Gilead Sciences, Inc., priority 2009, published 2010).

This test has as its system HCV genotype 1b replicon cells (Huh-luc). Put plainly: HCV 1b replicon combination study (luciferase, MacSynergy II analysis). In kind it is cell-based. Conditions: for Interaction: combination of Compound 1 and Compound 2, MacSynergy II. Here is the method:
HCV genotype 1b replicon cells (Huh-luc) were obtained from Reblikon (Mainz, Germany). The replicon in these cells is designated I389luc-ubi-neo/NS3-3′/ET and encodes a selectable resistance marker (neomycin phosphotransferase) as well as the firefly luciferase reporter gene. Huh-luc cells were maintained in Dulbecco's Modified Eagle's Medium (DMEM; GIBCO, Carlsbad, Calif.) supplemented with 10% fetal bovine serum (FBS; Hyclone, Logan, Utah) and 0.5 mg/mL of G-418 (GIBCO). Cells were passaged twice a week and maintained at subconfluent levels.
Replicon cells were seeded in 96-well plates at a density of 5×10^3 cells per well in 100 μL of DMEM culture medium, excluding G-418. Compounds 1 and 2 were serially diluted 1:3 in 100% DMSO (Sigma). These serial dilutions were added to the cells at a 1:200 dilution to achieve a final concentration of 0.5% DMSO in a total volume of 200 μL. Plates were incubated at 37° C. for 3 days, after which culture media were removed and cells were lysed and assayed for luciferase activity using a commercial luciferase assay (Promega, Madison, Wis.). HCV replication levels in drug-treated samples were expressed as a percentage of those in untreated controls (defined as 100%), and data were fit to the logistic dose response equation y=a/(1+(x/b)c) using XLFit4 software (IDBS, Emeryville, Calif.). EC50 values were calculated from the resulting equations as described previously (Delaney, W. E., et al., Antimicrobial Agents Chemotherapy, 45(6):1705-1713 (2001)). Replicon cells were seeded in 96-well plates at a density of 5×10^3 cells per well in 100 μL of culture medium. Compounds 1 and 2 were serially diluted in 100% DMSO as described above and added in a matrix format to 96-well plates, achieving a defined set of different drug concentrations and ratios in a final volume of 200 μL and a final DMSO concentration of 0.5%. […] Cells were incubated for three days and analyzed for luciferase expression as indicated above. […]
The calculated volumes of surface deviations are expressed in nM^2%. […]

Consider `Fc1ccccc1-c1nc2ccn(Cc3ccc(-c4ccc(C(F)(F)F)cc4C(F)(F)F)nn3)cc-2n1` [Compound 1, 5-({6-[2,4-bis(trifluoromethyl)phenyl]pyridazin-3-yl}methyl)-2-(2-fluorophenyl)-5H-imidazo[4,5-c]pyridine], for which the Interaction result was “moderate synergistic interaction”.

Regarding `CC(C)(C)NC(=O)N[C@H](C(=O)N1C[C@H]2[C@@H]([C@H]1C(=O)NC(CC1CCC1)C(=O)C(N)=O)C2(C)C)C(C)(C)C` (stereo partly drawn) [Compound 2, (1R,2S,5S)-3-[N-(N-tert-Butylcarbamoyl)-3-methyl-L-valyl]-N-(2-cyclobutyl-1-oxamoylethyl)-6,6-dimethyl-3-azabicyclo[3.1.0]hexane-2-carboxamide], the Interaction entry is recorded as “Moderate synergy”. Further, the “Antagonism Volume” value (in combination with Compound 1, 3 days, mean ± SD of two or three independent experiments in triplicate) is listed as −8.0 ± 13.6 nM^2.
